Test results from patent US20130096159A1, “INHIBITORS OF HUMAN 12-LIPOXYGENASE” (The United States of America, as represented the Secretary …, priority 2010, published 2013).

Key:
human platelets [1] = assay: platelet aggregation in response to agonists, light transmission aggregometry; type: cell-based; settings: agonists thrombin, arachidonic acid, PAR1-AP, PAR4-AP, ADP, collagen; 10 min pretreatment; FIG. 2
Experimental: (§1) Human platelets were obtained from healthy volunteers from within the Thomas Jefferson University community and the Philadelphia area. These studies were approved by the Thomas Jefferson University Institutional Review Board. Informed consent was obtained from all donors before blood draw. Blood was centrifuged at 200 g for 15 min at room temperature. Platelet-rich plasma was transferred into a conical tube containing a 10% acid citrate dextrose solution (39 mM citric acid, 75 mM sodium citrate, and 135 mM glucose, pH 7.4) and centrifuged at 2000 g for 15 min at room temperature. Platelets were resuspended in Tyrode's buffer (12 mM NaHCO3, 127 mM NaCl, 5 mM KCl, 0.5 mM NaH2PO4, 1 mM MgCl2, 5 mM glucose, and 10 mM HEPES), and the final platelet concentration was adjusted as indicated after counting using a Coulter counter (Beckman Coulter, Fullerton, Calif.). Reported results are the data obtained using platelets from at least three different subjects.
Washed platelets were obtained as described in Example 10. […] Platelets were pretreated with compound 1 for 10 min and aggregation in response to stimulation by the agonists thrombin, PAR1-AP, PAR4-AP, ADP and collagen at various agonist concentrations was measured via the light transmission aggregometry method using a lumi-aggregometer model 700D (Chrono-log Corp., Havertown, Pa.) with stirring at 1100 rpm at 37° C. […]

human platelets [2] = assay: dense granule secretion (ATP release) in washed platelets; type: cell-based; settings: induced by thrombin, PAR1-AP, PAR4-AP, ADP, arachidonic acid, collagen; FIG. 3
Experimental: as §1
Washed platelets were obtained as described in Example 10. […] After addition of 5 μl of Chrono-lume reagent (Chrono-log Corp., Havertown, Pa.), ATP release was measured in response to stimulation by the agonists thrombin, PAR1-AP, PAR4-AP, ADP, arachidonic acid, and collagen using a Lumi-aggregometer Model 700D (Chrono-log Corp., Havertown, Pa.) at 37° C. with stirring at 1100 rpm. […]

[3] = system: P-selectin on the surface of human platelets; assay: α-granule secretion, P-selectin expression by flow cytometry; type: cell-based; settings: vs agonists alone (thrombin, PAR1-AP, PAR4-AP, ADP); FIG. 4
Experimental: as §1
Washed platelets were obtained as described in Example 10. Flow cytometry was used to measure the secretion of α-granules. Specifically, P-selectin expression was used to detect α-granule secretion. […] The fluorescence intensity of 10,000 platelets was immediately measured using a C6 Accuri flow cytometer. […]

[4] = system: integrin αIIbβ3 in human platelets; assay: activation of integrin αIIbβ3, PAC1 binding by flow cytometry; type: cell-based; settings: vs agonists alone (thrombin, PAR1-AP, PAR4-AP, ADP); FIG. 5
Experimental: as §1
Washed platelets were obtained as described in Example 10. Flow cytometry was used to measure the activation of integrin αIIbβ3. Specifically, PAC1 (an antibody which only binds to αIIbβ3 when the protein is in its active conformation) binding was used to selectively detect the conformational activation of αIIbβ3. […] The fluorescence intensity of 10,000 platelets was immediately measured using a C6 Accuri flow cytometer. […]

recombinant human cPLA2 = target: T1, recombinant human cPLA2 (Homo sapiens, UniProt P47712); assay: cPLA2 enzymatic activity assay; type: biochemical; settings: 50 μM, 5 min of incubation; FIG. 8
T1 sequence (P47712 1-749): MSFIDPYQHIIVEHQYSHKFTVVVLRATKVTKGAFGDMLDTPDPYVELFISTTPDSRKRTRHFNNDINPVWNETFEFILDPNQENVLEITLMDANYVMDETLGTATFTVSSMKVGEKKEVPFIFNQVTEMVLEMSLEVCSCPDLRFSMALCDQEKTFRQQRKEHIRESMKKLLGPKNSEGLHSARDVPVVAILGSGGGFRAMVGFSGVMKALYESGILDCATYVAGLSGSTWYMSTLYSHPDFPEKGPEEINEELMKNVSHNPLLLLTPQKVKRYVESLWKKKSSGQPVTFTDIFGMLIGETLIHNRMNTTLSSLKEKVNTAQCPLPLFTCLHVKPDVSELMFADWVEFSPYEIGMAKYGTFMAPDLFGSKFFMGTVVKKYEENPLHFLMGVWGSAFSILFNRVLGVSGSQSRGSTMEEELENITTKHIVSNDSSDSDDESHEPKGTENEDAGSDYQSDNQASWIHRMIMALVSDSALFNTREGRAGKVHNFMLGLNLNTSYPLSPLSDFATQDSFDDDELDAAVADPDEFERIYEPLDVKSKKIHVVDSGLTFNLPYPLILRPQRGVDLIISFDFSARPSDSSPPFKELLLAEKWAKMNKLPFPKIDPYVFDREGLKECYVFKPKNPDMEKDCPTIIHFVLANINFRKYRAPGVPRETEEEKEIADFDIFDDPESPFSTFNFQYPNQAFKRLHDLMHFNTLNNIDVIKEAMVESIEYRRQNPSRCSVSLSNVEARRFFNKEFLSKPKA
Experimental: A., et al., Biochemistry, 2011, 50: 1731-1738 with the following differences. The inhibitors in solution in DMSO were added at a final concentration of 50 μM right before the recombinant enzyme was added to initiate the reaction. After 5 min of incubation, the products of reaction were analyzed, and the results depicted in FIG. 8.

For CCC(=O)NC(c1cccs1)c1cc([N+](=O)[O-])c2cccnc2c1O (centres unmarked) [Compound 1, N-((8-hydroxy-5-nitroquinolin-7-yl)(thiophen-2-yl)methyl)propionamide], the “dose response curves for platelet aggregation” value (human platelets [1]) was “substantially unaffected”, the “ATP secretion (dense granule secretion)” value (human platelets [2]) was “substantially complete blockage of ATP secretion” and the “expression of P-selectin on the surface of the platelets” value [3] was “decreased expression of P-selectin”. The “binding of PAC1 on the surface of the platelets” value [4] was “decreased binding of PAC1” and the “inhibition of cPLA2” value (recombinant human cPLA2) was “did not inhibit cPLA2”.
